The structures appear in SMILES notation.

Assay [1] addresses T1, Serine/threonine-protein kinase 4 (Homo sapiens) (UniProt Q13043).
T1 sequence (whole entry): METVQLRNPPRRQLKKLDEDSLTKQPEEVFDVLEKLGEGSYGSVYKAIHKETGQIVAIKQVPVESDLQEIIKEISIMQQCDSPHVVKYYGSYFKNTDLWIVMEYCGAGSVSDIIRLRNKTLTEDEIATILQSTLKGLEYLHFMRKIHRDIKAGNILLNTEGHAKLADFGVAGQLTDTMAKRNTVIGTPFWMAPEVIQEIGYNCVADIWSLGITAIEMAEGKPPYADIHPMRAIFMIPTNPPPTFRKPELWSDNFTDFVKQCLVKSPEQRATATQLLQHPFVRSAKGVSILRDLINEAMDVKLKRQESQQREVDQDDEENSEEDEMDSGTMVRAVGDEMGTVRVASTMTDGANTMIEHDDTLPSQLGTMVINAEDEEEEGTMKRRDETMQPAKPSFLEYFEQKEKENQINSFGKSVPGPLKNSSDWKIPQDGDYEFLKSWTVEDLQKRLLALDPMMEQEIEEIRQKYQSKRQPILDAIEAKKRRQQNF

In assay [2] the target is T2, Serine/threonine-protein kinase Nek2 (Homo sapiens) (UniProt P51955).
T2 sequence (whole entry): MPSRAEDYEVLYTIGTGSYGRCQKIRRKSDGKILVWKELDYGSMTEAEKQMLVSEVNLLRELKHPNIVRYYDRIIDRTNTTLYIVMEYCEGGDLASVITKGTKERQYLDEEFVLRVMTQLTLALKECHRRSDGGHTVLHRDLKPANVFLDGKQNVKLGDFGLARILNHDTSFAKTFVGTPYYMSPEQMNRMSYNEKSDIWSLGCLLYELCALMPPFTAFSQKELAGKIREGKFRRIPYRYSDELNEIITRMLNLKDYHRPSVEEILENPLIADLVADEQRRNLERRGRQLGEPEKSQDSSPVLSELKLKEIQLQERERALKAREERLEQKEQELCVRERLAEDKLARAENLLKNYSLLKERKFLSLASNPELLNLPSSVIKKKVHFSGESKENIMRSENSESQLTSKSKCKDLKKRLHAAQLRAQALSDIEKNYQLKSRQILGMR

In assay [3] the target is Death-associated protein kinase 3 (Homo sapiens) (UniProt O43293).
Assay [4] concerns the target Serine/threonine-protein kinase PAK 4 (Homo sapiens) (UniProt O96013).
Assay [5] concerns the target T3, Myotonin-protein kinase (Homo sapiens) (UniProt Q09013).
T3 sequence (whole entry): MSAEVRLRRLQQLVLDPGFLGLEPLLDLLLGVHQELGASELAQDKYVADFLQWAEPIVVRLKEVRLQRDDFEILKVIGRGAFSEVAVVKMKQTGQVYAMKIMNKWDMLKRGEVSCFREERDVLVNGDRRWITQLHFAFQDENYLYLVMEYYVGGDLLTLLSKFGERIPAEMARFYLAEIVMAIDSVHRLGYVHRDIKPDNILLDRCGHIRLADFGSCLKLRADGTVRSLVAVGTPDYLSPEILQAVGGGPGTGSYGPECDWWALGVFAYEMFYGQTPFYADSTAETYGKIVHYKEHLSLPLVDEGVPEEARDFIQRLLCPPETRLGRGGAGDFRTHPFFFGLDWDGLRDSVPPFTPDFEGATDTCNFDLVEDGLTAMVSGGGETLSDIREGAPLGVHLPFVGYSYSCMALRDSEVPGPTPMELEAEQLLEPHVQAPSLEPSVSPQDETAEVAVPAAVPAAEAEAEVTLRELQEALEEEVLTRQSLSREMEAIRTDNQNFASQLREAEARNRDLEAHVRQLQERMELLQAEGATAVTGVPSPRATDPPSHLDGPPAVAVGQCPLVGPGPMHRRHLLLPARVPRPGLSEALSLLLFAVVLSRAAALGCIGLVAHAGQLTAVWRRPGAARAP

In assay [6] the target is Serine/threonine-protein kinase pim-1 (Homo sapiens) (UniProt P11309).
The target of assay [7] is Mitogen-activated protein kinase 11 (Homo sapiens, UniProt Q15759).
The target of assay [8] is Casein kinase I isoform gamma-1 (Homo sapiens) (UniProt Q9HCP0).
Assay [9] concerns the target Cyclin-dependent kinase 2 (Homo sapiens, UniProt P24941).
Assay [10] deals with T4, Dual specificity mitogen-activated protein kinase kinase 6 (Homo sapiens) (UniProt P52564).
T4 sequence (whole entry): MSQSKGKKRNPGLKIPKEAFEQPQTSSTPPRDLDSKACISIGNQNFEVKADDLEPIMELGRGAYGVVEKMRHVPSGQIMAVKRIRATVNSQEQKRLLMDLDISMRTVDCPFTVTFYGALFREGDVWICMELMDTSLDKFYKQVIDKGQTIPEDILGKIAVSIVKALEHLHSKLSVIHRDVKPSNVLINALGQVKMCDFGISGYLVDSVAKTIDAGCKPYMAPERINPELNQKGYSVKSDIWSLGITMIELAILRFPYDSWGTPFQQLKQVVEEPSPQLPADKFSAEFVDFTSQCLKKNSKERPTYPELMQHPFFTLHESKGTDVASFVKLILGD

The target in assay [11] is Ribosomal protein S6 kinase alpha-3 (Homo sapiens) (UniProt P51812).
Ribosomal protein S6 kinase alpha-3 (Homo sapiens), sequence (P51812 whole entry): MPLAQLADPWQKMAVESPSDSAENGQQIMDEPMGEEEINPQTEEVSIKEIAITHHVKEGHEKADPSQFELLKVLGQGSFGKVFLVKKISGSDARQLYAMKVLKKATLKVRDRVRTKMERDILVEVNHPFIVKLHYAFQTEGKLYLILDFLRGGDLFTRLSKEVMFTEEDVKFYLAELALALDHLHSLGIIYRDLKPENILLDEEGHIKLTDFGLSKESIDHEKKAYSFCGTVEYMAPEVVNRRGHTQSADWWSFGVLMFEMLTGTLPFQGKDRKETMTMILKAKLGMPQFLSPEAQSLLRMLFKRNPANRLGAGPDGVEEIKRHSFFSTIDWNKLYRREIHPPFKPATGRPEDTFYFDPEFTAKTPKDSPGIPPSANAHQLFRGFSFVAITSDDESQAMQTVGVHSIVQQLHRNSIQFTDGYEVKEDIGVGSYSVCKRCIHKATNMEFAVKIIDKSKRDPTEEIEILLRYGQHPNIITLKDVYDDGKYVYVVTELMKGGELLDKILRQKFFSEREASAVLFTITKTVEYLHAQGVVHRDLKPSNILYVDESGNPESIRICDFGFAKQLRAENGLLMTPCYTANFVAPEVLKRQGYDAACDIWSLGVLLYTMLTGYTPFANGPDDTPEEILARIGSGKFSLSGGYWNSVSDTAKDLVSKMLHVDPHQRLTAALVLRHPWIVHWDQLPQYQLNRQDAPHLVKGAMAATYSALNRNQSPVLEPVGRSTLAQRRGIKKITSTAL

Serine/threonine-protein kinase pim-1 (Homo sapiens), sequence (P11309 whole entry, looked up): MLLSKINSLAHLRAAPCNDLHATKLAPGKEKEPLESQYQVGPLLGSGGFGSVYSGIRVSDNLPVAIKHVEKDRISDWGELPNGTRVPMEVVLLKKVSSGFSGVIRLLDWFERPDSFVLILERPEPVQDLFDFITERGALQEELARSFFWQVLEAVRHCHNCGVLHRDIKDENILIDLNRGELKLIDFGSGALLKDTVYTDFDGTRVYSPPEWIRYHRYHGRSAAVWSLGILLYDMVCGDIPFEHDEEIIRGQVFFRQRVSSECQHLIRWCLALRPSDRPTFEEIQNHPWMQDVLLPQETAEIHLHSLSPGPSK
Mitogen-activated protein kinase 11, sequence (Q15759 whole entry, canonical isoform): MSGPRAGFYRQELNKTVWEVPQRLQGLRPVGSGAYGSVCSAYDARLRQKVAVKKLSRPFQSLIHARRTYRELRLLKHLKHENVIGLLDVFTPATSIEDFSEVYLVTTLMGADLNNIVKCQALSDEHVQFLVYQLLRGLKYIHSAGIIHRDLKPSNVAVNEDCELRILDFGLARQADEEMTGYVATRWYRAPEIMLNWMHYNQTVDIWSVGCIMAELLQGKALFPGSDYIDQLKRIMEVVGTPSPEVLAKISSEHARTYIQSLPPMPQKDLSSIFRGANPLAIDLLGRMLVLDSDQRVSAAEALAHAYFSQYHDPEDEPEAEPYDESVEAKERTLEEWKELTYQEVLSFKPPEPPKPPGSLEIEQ
Casein kinase I isoform gamma-1 (Homo sapiens), sequence (Q9HCP0 whole entry, looked up, canonical isoform): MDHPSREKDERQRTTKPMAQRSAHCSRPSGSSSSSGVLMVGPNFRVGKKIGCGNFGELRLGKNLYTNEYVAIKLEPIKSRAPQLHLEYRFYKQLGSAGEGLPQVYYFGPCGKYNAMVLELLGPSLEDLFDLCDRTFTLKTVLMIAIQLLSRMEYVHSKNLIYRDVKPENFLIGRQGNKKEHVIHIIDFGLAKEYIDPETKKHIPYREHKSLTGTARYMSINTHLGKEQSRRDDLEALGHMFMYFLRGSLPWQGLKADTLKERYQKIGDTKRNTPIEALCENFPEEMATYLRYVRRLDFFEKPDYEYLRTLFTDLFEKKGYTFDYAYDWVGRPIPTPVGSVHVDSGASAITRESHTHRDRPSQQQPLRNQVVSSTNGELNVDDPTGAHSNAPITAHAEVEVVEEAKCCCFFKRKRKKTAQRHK
Death-associated protein kinase 3 (Homo sapiens), sequence (O43293 whole entry, looked up): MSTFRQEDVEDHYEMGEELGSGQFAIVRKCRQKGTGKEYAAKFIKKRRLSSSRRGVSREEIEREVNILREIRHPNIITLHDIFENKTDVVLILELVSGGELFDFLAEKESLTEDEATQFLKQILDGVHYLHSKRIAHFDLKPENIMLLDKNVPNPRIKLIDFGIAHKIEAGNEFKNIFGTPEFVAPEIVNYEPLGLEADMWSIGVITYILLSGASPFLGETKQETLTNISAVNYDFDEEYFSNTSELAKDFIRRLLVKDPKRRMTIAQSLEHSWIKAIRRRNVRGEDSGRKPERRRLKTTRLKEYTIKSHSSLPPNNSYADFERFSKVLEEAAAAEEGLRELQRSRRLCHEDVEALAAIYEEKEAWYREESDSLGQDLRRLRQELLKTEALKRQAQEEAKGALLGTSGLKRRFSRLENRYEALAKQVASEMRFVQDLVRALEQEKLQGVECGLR
Serine/threonine-protein kinase PAK 4 (Homo sapiens), sequence (O96013 whole entry, looked up): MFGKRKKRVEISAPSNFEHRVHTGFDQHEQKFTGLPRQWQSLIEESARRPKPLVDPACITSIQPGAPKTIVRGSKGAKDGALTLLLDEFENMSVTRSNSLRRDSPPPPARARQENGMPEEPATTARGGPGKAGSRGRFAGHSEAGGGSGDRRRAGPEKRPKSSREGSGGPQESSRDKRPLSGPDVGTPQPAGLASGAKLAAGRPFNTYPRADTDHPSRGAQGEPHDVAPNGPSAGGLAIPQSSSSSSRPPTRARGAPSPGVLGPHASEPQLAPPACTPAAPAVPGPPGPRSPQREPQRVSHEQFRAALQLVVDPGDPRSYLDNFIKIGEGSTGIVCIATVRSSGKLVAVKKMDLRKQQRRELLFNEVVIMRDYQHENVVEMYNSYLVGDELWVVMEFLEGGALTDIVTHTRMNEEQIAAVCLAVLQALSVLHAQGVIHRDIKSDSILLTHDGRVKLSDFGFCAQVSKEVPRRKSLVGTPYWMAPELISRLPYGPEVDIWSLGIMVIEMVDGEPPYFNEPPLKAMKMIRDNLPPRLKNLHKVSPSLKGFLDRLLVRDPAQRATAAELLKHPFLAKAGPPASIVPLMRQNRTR

The ΔTm is the shift of the melting midpoint relative to a reference. On to `COc1cc2ncnc(Nc3cccc(O)c3)c2cc1OC`, for which the shift in melting temperature (ΔTm) in [1] turned out to be 1.6 °C; in assay [2], 0.2 °C; in [3] it was 1.7 °C; in assay [4], 1 °C; in assay [5], 0.9 °C; in [6], 0 °C. The results for the shift in melting temperature (ΔTm) in [7] and in assay [8] were 0.8 °C and 1.3 °C, respectively.

With `CN1CCC(Nc2ncc3ncnc(Nc4ccc(F)c(Cl)c4)c3n2)CC1` [FALNIDAMOL], the shift in melting temperature (ΔTm) in [2] amounted to 2.4 °C; in assay [3] it was 0.3 °C; in assay [4], 1.5 °C; in assay [9], 0.1 °C; in assay [5] it was 1.4 °C; in assay [6] it was 5.2 °C. Further, the values for the thermal shift (ΔTm) in assay [7], in [8] and in assay [10] were 0 °C, 0.4 °C and 0.3 °C, respectively.

For `CN[C@@H]1CC2O[C@@](C)([C@@H]1OC)n1c3ccccc3c3c4c(c5c6ccccc6n2c5c31)C(=O)NC4`, the ΔTm in assay [1] was found to be 17.9 °C; in [2] it was 2.8 °C; in assay [3] it was 13 °C; in [5], 14.1 °C; in assay [7], 0.5 °C; in assay [8], 1.9 °C. Also, the ΔTm in [10] was 11.6 °C.

As to `Clc1ccc(Nc2nnc(Cc3ccncc3)c3ccccc23)cc1`, the ΔTm in assay [2] was 0.6 °C; in assay [3], 0 °C; in assay [4] it was -0.1 °C; in assay [9], -0.5 °C; in assay [5] it was -0.5 °C; in assay [6] it was -0.2 °C. Besides, the figures for the ΔTm in [7], in [8] and in [10] were 0.5 °C, -0.2 °C and 0.4 °C, respectively.

Turning to `COC(=O)[C@]1(O)C[C@@H]2O[C@@]1(C)n1c3ccccc3c3c4c(c5c6ccccc6n2c5c31)C(=O)NC4` (single isomer, unassigned), the ΔTm stood at 9.5 °C in [1]; 1.9 °C in [2]; 4.6 °C in [3]; 5.1 °C in assay [11]; 3.9 °C in assay [4]; 3.9 °C in assay [5]. The ΔTm in assay [6] was determined as 3.7 °C; in assay [7], 0.7 °C; in assay [8], 0.6 °C.

As to `Cc1ccc(NC(=O)c2ccc(CN3CCN(C)CC3)cc2)cc1Nc1nccc(-c2cccnc2)n1`, the ΔTm is 0.2 °C in assay [1]; -0.8 °C in [2]; 2.8 °C in assay [3]; -0.4 °C in assay [11]; 0.4 °C in assay [4]; 0.6 °C in [5]. The shift in melting temperature (ΔTm) is -0.1 °C in [6], -0.5 °C in [7], 0.5 °C in assay [8] and 0.4 °C in assay [10].

Consider `CCN(CC)CCNC(=O)c1c(C)[nH]c(/C=C2\C(=O)Nc3ccc(F)cc32)c1C`, for which the ΔTm was 0.5 °C in assay [1]; -0.4 °C in [2]; 0.3 °C in assay [3]; 8.6 °C in assay [11]; 3.3 °C in assay [4]; 2.7 °C in assay [5]. For the same molecule, the thermal shift (ΔTm) came out at 2.3 °C in [6], 0.1 °C in [7] and 3.9 °C in assay [10].

Consider `OC[C@H]1O[C@@H](n2cnc3cc(Cl)c(Cl)cc32)[C@H](O)[C@@H]1O`, for which the ΔTm in assay [1] is 0.2 °C; in assay [2], 0.5 °C; in [3], 1.6 °C; in assay [11] it was 0 °C; in assay [4], -0.9 °C; in [5] it was 0.1 °C. In addition, the ΔTm in [6] amounted to 3.2 °C; in [7], 0 °C; in assay [8], 0.7 °C; in assay [10] it was 0.2 °C.

Regarding `COc1ccc(COc2ccc(Cc3cnc(N)nc3N)cc2OC)cc1`, the ΔTm in [1] is 0.2 °C; in assay [2], -0.1 °C; in assay [3], 0.3 °C; in assay [11], -0.2 °C; in assay [4], -0.1 °C; in [5], 0.1 °C. Further, the ΔTm in [6] was 0 °C; in assay [7] it was -0.1 °C; in assay [8], 0.7 °C; in assay [10], 0.1 °C.

For the origin of these results see ChEMBL document CHEMBL1145498, “A systematic interaction map of validated kinase inhibitors with Ser/Thr kinases” (Proc Natl Acad Sci U S A, 2007).
